Measured values: patent US20060142247A1, “Tricyclic heterocycles” (priority 2004, published 2006)
pIC50: −log10 of the molar value.

System: HCT 116 cells
Assay: Viability assay HCT 116 cells (CellTiter-Glo)
Format: cell-based
Details: Homo sapiens, HCT-116, 120 h, HCT 116 human colon carcinoma cells, 5 days incubation, CellTiter-Glo luminescence
Procedure: Viability Assay—HCT 116 Cells
A viability assay was performed using the CellTiter-Glo® Luminescent Cell Viability Assay (see Promega Corporation's Technical Bulletin No. 288, pp. 1-11 [revised 2/04] which is hereby incorporated by reference in its entirety). This assay is a homogeneous method of determining the number of viable cells in culture based on quantitation of the ATP present, an indicator of metabolically active cells. The assay is designed for use with multiwell formats, making it ideal for automated high-throughput screening (HTS), cell proliferation and cytotoxicity assays. The homogeneous assay procedure involves adding a single reagent (containing luciferase, luciferan substrate, and buffer) directly to cells cultured in serum-supplemented medium. Cell washing, removal of medium and multiple pipetting steps are not required. The system detects as few as 15 cells/well in a 384-well format in 10 minutes after adding reagent and mixing.
The homogeneous “add-mix-measure” format results in cell lysis and generation of a luminescent signal proportional to the amount of ATP present. The amount of ATP is directly proportional to the number of cells present in culture. The above-referenced assay generates a “glow-type” luminescent signal, produced by the luciferase reaction, which has a half-life generally greater than five hours, depending on cell type and medium used. The extended half-life eliminates the need to use reagent injectors and provides flexibility for continuous or batch mode processing of multiple plates. The unique homogeneous format avoids errors that may be introduced by other ATP measurement methods that require multiple steps.
HCT 116 cells (human colon carcinoma, ATCC-No. CCl-247) were cultivated in RPMI 1640 medium with GlutaMAX™ I (cell culture media that contains L-Alanyl-L-Glutamine [a stabilized a form/source of L-Glutamine] from Invitrogen, Cat-No. 61870-010), 2.5% Fetal Calf Serum (FCS, Sigma Cat-No. F4135 (FBS)); 100 Units/ml penicillin/100 μg/ml streptomycin (=Pen/Strep from Invitrogen Cat. No. 15140). For the assay the cells were seeded in 384 well plates, 1000 cells per well, in the same medium. The next day the test compounds were added in various concentrations ranging from 30 μM to 0.0015 μM (10 concentrations, 1:3 diluted). After 5 days the viability assay was done according to the instructions of the manufacturer. In brief: the cell-plate was equilibrated to room temperature for approximately 30 minutes and than the reagent (containing luciferase, luciferan substrate, and buffer) was added. The contents were carefully mixed for 15 minutes to induce cell lysis. After 45 minutes the luminescent signal was measured in Victor 2, (scanning multiwell spectrophotometer, Wallac).
Medium: RPMI 1640 with cell culture media containing L-Alanyl-L-Glutamine [GlutaMAX™ I (Invitrogen, Cat-Nr. 61870)], 5% FCS (Sigma Cat.-No. F4135), Pen/Strep (Invitrogen, Cat No. 15140). • HCT116 (ATCC-No. CCl-247): 1000 cells in 60 μl per well of 384 well plate (Greiner 781098, μClear-plate white) • After seeding incubate plates 24 h at 37° C., 5% CO2 2nd. Day: Induction (Treatment with Compounds, 10 Concentrations):
In order to achieve a final concentration of 30 μM as highest concentration […] of 10 mM compound stock solution were added directly to 163 μl media. Then step e) of the dilution procedure described below, was followed.

SMILES | pIC50
CC1(C)C(=O)N(Cc2nccs2)c2cc3[nH]c(-c4n[nH]c5ccccc45)nc3cc21 [Example 32, 2-(1H-Indazol-3-yl)-7,7-dimethyl-5-thiazol-2-ylmethyl-5,7-dihydro-3H-imidazo[4,5-f]indol-6-one] | 6.62
CC1(C)C(=O)Nc2cc3[nH]c(-c4n[nH]c5ccc(C(=O)NCc6ccccc6)cc45)nc3cc21 [Example 77, 3-(7,7-Dimethyl-6-oxo-3,5,6,7-tetrahydro-imidazo[4,5-f]indol-2-yl)-1H-indazole-5-carboxylic acid benzylamide] | 6.00 to 7.00
CCN1C(=O)CC(C)(C)c2cc3nc(-c4n[nH]c5ccccc45)[nH]c3cc21 [Example 14, 5-Ethyl-2-(1H-indazol-3-yl)-8,8-dimethyl-3,5,7,8-tetrahydro-imidazo[4,5-g]quinolin-6-one] | 6.19
CC1(C)C(=O)N(CC(=O)NOCc2ccccc2)c2cc3[nH]c(-c4n[nH]c5ccccc45)nc3cc21 [Example 50, N-Benzyloxy-2-[2-(1H-indazol-3-yl)-7,7-dimethyl-6-oxo-6,7-dihydro-3H-imidazo[4,5-f]indol-5-yl]-acetamide] | 6.00 to 7.00
CC(C)N1C(=O)C(C)(C)c2cc3[nH]c(-c4n[nH]c5ccc(NS(=O)(=O)c6ccc(F)cc6)cc45)nc3cc21 [Example 142, 4-Fluoro-N-[3-(5-isopropyl-7,7-dimethyl-6-oxo-1,5,6,7-tetrahydro-imidazo[4,5-f]indol-2-yl)-1H-indazol-5-yl]-benzenesulfonamide] | 6.00 to 7.00
CCN1C(=O)C(C)(C)c2cc3nc(-c4n[nH]c5ccc(C(=O)NCc6ccc(F)cc6F)cc45)[nH]c3cc21 [Example 85, 3-(5-Ethyl-7,7-dimethyl-6-oxo-3,5,6,7-tetrahydro-imidazo[4,5-f]indol-2-yl)-1H-indazole-5-carboxylic acid 2,4-difluoro-benzylamide] | 6.00 to 7.00
CCN1C(=O)C(C)(C)c2cc3nc(-c4n[nH]c5ccc(F)cc45)[nH]c3cc21 [Example 66, 5-Ethyl-2-(5-fluoro-1H-indazol-3-yl)-7,7-dimethyl-5,7-dihydro-3H-imidazo[4,5-f]indol-6-one] | 6.00 to 7.00
CCN1C(=O)C(C)(C)c2cc3nc(-c4n[nH]c5ccc(C(N)=O)cc45)[nH]c3cc21 [Example 100, 3-(5-Ethyl-7,7-dimethyl-6-oxo-3,5,6,7-tetrahydro-imidazo[4,5-f]indol-2-yl)-1H-indazole-5-carboxylic acid amide] | 5.00 to 6.00
CCN(CC)CCN1C(=O)C(C)(C)c2cc3nc(-c4n[nH]c5ccccc45)[nH]c3cc21 [Example 22, 5-(2-Diethylamino-ethyl)-2-(1H-indazol-3-yl)-7,7-dimethyl-5,7-dihydro-3H-imidazo[4,5-f]indol-6-one] | 6.00 to 7.00
CCN1C(=O)C(C)(C)c2cc3[nH]c(-c4n[nH]c5ccc(NS(=O)(=O)c6ccccc6)cc45)nc3cc21 [Example 132, N-[3-(5-Ethyl-7,7-dimethyl-6-oxo-1,5,6,7-tetrahydro-imidazo[4,5-f]indol-2-yl)-1H-indazol-5-yl]-benzenesulfonamide] | 6.00 to 7.00
CC1(C)C(=O)N(CCNC(=O)N2CCCC2)c2cc3[nH]c(-c4n[nH]c5ccccc45)nc3cc21 [Example 58, Pyrrolidine-1-carboxylic acid {2-[2-(1H-indazol-3-yl)-7,7-dimethyl-6-oxo-6,7-dihydro-3H-imidazo[4,5-f]indol-5-yl]-ethyl}-amide] | 6.00 to 7.00
CC(C)N1C(=O)C(C)(C)c2cc3[nH]c(-c4n[nH]c5ccc(NS(=O)(=O)c6ccccc6S(C)(=O)=O)cc45)nc3cc21 [Example 143, N-[3-(5-Isopropyl-7,7-dimethyl-6-oxo-1,5,6,7-tetrahydro-imidazo[4,5-f]indol-2-yl)-1H-indazol-5-yl]-2-methanesulfonyl-benzenesulfonamide] | 6.00 to 7.00
CCN1C(=O)C(C)(C)c2cc3nc(-c4n[nH]c5ccc(C(=O)NCc6cccc(Cl)c6)cc45)[nH]c3cc21 [Example 88, 3-(5-Ethyl-7,7-dimethyl-6-oxo-3,5,6,7-tetrahydro-imidazo[4,5-f]indol-2-yl)-1H-indazole-5-carboxylic acid 3-chloro-benzylamide] | 6.00 to 7.00
CCN1C(=O)C(C)(C)c2cc3nc(-c4n[nH]c5ccc(NC(C)=O)cc45)[nH]c3cc21 [Example 145, N-[3-(5-Ethyl-7,7-dimethyl-6-oxo-3,5,6,7-tetrahydro-imidazo[4,5-f]indol-2-yl)-1H-indazol-5-yl]-acetamide] | 5.00 to 6.00
CCN1C(=O)C(C)(C)c2cc3[nH]c(-c4n[nH]c5ccc(NC(=O)OCc6ccccc6)cc45)nc3cc21 [Example 130, [3-(5-Ethyl-7,7-dimethyl-6-oxo-1,5,6,7-tetrahydro-imidazo[4,5-f]indol-2-yl)-1H-indazol-5-yl]-carbamic acid benzyl ester] | 6.00 to 7.00
CCN1C(=O)C(C)(C)c2cc3[nH]c(-c4n[nH]c5ccc(NS(=O)(=O)c6ccccc6[N+](=O)[O-])cc45)nc3cc21 [Example 134, N-[3-(5-Ethyl-7,7-dimethyl-6-oxo-1,5,6,7-tetrahydro-imidazo[4,5-f]indol-2-yl)-1H-indazol-5-yl]-2-nitro-benzenesulfonamide] | 6.00 to 7.00
CCN1C(=O)C(C)(C)c2cc3[nH]c(-c4n[nH]c5ccc(NC(=O)N6CCOCC6)cc45)nc3cc21 [Example 128, Morpholine-4-carboxylic acid [3-(5-ethyl-7,7-dimethyl-6-oxo-1,5,6,7-tetrahydro-imidazo[4,5-f]indol-2-yl)-1H-indazol-5-yl]-amide] | 5.00 to 6.00
CCN1C(=O)C(C)(C)c2cc3[nH]c(-c4n[nH]c5ccc(NS(=O)(=O)c6ccc(F)cc6)cc45)nc3cc21 [Example 137, N-[3-(5-Ethyl-7,7-dimethyl-6-oxo-1,5,6,7-tetrahydro-imidazo[4,5-f]indol-2-yl)-1H-indazol-5-yl]-4-fluoro-benzenesulfonamide] | 6.00 to 7.00
CC1(C)C(=O)N(CC(=O)NCc2cccnc2)c2cc3[nH]c(-c4n[nH]c5ccccc45)nc3cc21 [Example 41, 2-[2-(1H-Indazol-3-yl)-7,7-dimethyl-6-oxo-6,7-dihydro-3H-imidazo[4,5-f]indol-5-yl]-N-pyridin-3-ylmethyl-acetamide] | 6.00 to 7.00
CC(C)N1C(=O)C(C)(C)c2cc3[nH]c(-c4n[nH]c5ccc(NS(=O)(=O)c6ccccc6[N+](=O)[O-])cc45)nc3cc21 [Example 144, N-[3-(5-Isopropyl-7,7-dimethyl-6-oxo-1,5,6,7-tetrahydro-imidazo[4,5-f]indol-2-yl)-1H-indazol-5-yl]-2-nitro-benzenesulfonamide] | 6.00 to 7.00
CONC(=O)CN1C(=O)C(C)(C)c2cc3nc(-c4n[nH]c5ccccc45)[nH]c3cc21 [Example 51, 2-[2-(1H-Indazol-3-yl)-7,7-dimethyl-6-oxo-6,7-dihydro-3H-imidazo[4,5-f]indol-5-yl]-N-methoxy-acetamide] | 6.00 to 7.00
CCN1C(=O)C(C)(C)c2cc3nc(-c4n[nH]c5cc(Br)ccc45)[nH]c3cc21 [Example 70, 2-(6-Bromo-1H-indazol-3-yl)-5-ethyl-7,7-dimethyl-5,7-dihydro-3H-imidazo[4,5-f]indol-6-one] | 6.00 to 7.00
CN1C(=O)C(C)(C)c2cc3nc(-c4n[nH]c5ccccc45)[nH]c3cc21 [Example 4, 2-(1H-indazol-3-yl)-5,7,7-trimethyl-5,7-dihydro-3H-imidazo[4,5-f]indol-6-one] | 6.00 to 7.00
